Columns and labels:
calf thymus DNA = assay: UV-dialysis study (covalent retention on DNA); format: binding; settings: 24 h incubation at room temperature; 20-26 hours dialysis; pH 7.1
Description: The compounds of the present invention are useful as anticancer agents. Although the biological mechanism which results in anticancer activity is not fully understood, the compounds of the subject invention are capable of binding to the minor groove of double-stranded DNA and, unlike distamycin and netropsin, can tolerate GC-containing DNA. Accordingly, the DNA alkylating moiety of the compounds of the present invention can be directed to the minor groove of GC-containing regions of double-stranded DNA. One of ordinary skill in the art can determine the DNA alkylating ability of the compounds of the present invention by art-recognized methods. The formation of an irreversible adduct of DNA and a compound of the present invention is defined herein as a measure of the DNA alkylating ability of the subject compounds. The formation of an irreversible adduct can be determined by art-recognized methods. For example, a solution containing DNA and a compound of the present invention can be exhaustively dialyzed under conditions which allow unbound drug to pass out of the dialysis bag. The percentage of the compound which has been retained in the dialysis bag is considered to be covalently bound to the DNA, and is determined by comparing the UV absorption spectrum of the compound/DNA solution before and after exhaustive dialysis.
0.5 mL of 2A260 calf thymus DNA was diluted to 2 mL with 10 mM sodium phosphate and 0.25 mM EDTA buffer, pH 7.1. Four aliquots (3 μL each) of a 1 mM stock drug solution in distilled water were added to the DNA solution and a UV absorption spectrum (300-320) was recorded after each addition. The drug/DNA solution was incubated for 24 h at room temperature and another UV spectrum was recorded. The drug/DNA solution was then transferred into a dialysis bag and the dialysis bag was suspended in 30 mL of 10 mM sodium phosphate and 0.25 mM EDTA buffer, pH, 7.1, at room temperature. After 20-26 hours, the […] spectrum of 2 mL of the buffer outside the dialysis bag was recorded. The absorbance of the drug peak was converted to concentration by the Beer-Lambert equation, and the data was presented as percent initial concentration. Under these conditions, substantial amounts of Compounds 6 (55±5%), 7 (45±5%), 8 (85±5%) and 10 (100±5%) are retained in the dialysis bag, while only 29±5% of a formamido analog^1 is retained.

HCT-116 = assay: NCI cytotoxicity screen (SRB); format: cell-based, human
Procedure: (§1) Compounds 6, 7, 9 and 10 were tested for cytotoxic properties by the National Cancer Institute, Bethesda, Md. The anticancer drug screen utilized a panel of 60 human tumor cell lines organized into subpanels representing leukemia, melanoma, and cancers of the lung, colon, kidney, ovary and central nervous system and is described by Monks et al. (1991) Journal of the National Cancer Institute 83, 757, which is incorporated herein by reference.
(§2) Cell lines were inoculated onto microtiter plates and preincubated for 24-28 hours. 100 μL aliquots of each compound were added to the appropriate microtiter plate wells in each of five 10-fold dilutions starting from a maximum concentration of 10^-4 M in water or DMSO. Cultures were then incubated for an additional 48 hours. Cells were then fixed in situ, followed by staining with sulforhodamine B (SRB), which binds to basic amino acids of cellular macromolecules. The solubilized stain was measured spectrophotometrically to determine relative cell growth or viability in treated and untreated cells. The monoimidazole analogs of Compounds 6, 7, 9 and 10 and the formamido analog corresponding to Compounds 7 and 10 are devoid of activity against the panel of cancer cell lines in Table III.

COLO-205 = assay: NCI cytotoxicity screen (SRB); format: cell-based, human
Procedure: as §1, §2

DLD-1 = assay: NCI cytotoxicity screen (SRB); format: cell-based, human
Procedure: as §1, §2

U251 = assay: NCI cytotoxicity screen (SRB); format: cell-based, human
Procedure: as §1, §2

NCI-H226 = assay: NCI cytotoxicity screen (SRB); format: cell-based, human
Procedure: as §1, §2

A549/ATCC = assay: NCI cytotoxicity screen (SRB); format: cell-based, human
Procedure: as §1, §2

[1] = 48 h, Non-Small Cell Lung Cancer NCI-H226
[2] = 48 h, Non-Small Cell Lung Cancer A549/ATCC
[3] = A549/ATCC, subsequent test date

SMILES | retained in the dialysis bag (percent initial concentration) (calf thymus DNA) [%] | IC50 (HCT-116; 48 h, Colon Cancer HCT-116) [µM] | IC50 (HCT-116; HCT-116, subsequent test date) [µM] | IC50 (COLO-205; 48 h, Colon Cancer COLO-205) [µM] | IC50 (COLO-205; COLO-205, subsequent test date) [µM] | IC50 (DLD-1; 48 h, Colon Cancer DLD-1) [µM] | IC50 (DLD-1; DLD-1, subsequent test date) [µM] | IC50 (U251; 48 h, CNS Cancer U251) [µM] | IC50 (U251; U251, subsequent test date) [µM] | IC50 (NCI-H226; [1]) [µM] | IC50 (NCI-H226; NCI-H226, subsequent test date) [µM] | IC50 (A549/ATCC; [2]) [µM] | IC50 (A549/ATCC; [3]) [µM]
CN(C)CCNC(=O)c1nc(NC(=O)c2nc(NC(=O)c3ccc(N(CCCl)CCCl)cc3)cn2C)cn1C [Compound 6, N-(N',N'-dimethylaminoethyl)-1-methyl-4-{4-[4,4-bis(2-chloroethyl)aminobenzamido]-1-methylimidazole-2-carboxamido}imidazole-2-carboxamide] | 55±5 | 6.54 | 6.71 | 5.88 | 7.39 | 46.6 | 55.5 | 6.73 | 5.8 | 62.2 | 61.3 | 58.8 | 38.4
CN(C)CCNC(=O)c1nc(NC(=O)c2nc(NC(=O)c3nc(NC(=O)c4ccc(N(CCCl)CCCl)cc4)cn3C)cn2C)cn1C [Compound 7, N-(N',N'-dimethylaminoethyl)-1-methyl-4-{1-methyl-4-[4-(4,4-bis-(2-chloroethyl)aminobenzamido)-1-methylimidazole-2-carboxamido]imidazole-2-carboxamido}imidazole-2-carboxamide] | 45±5 | – | – | 0.97 | 0.56 | 4.34 | – | – | 0.5 | – | 5.54 | 5.64 | 4.12
CN(C)CCNC(=O)c1nc(NC(=O)c2nc(NC(=O)c3nc(NCc4ccc(N(CCCl)CCCl)cc4)cn3C)cn2C)cn1C [Compound 8, N-(N',N'-dimethylaminoethyl)-1-methyl-4-{1-methyl-4-[4-(4,4-bis-(2-chloroethyl)aminobenzylamino)-1-methylimidazole-2-carboxamido]imidazole-2-carboxamido}imidazole-2-carboxamide] | 85±5 | – | – | – | – | – | – | – | – | – | – | – | –
CN(C)CCNC(=O)c1nc(NC(=O)c2nc(NC(=O)CCCc3ccc(N(CCCl)CCCl)cc3)cn2C)cn1C [Compound 9, N-(N',N'-dimethylaminoethyl)-1-methyl-4-{4-[4,4-bis(2-chloroethyl)aminophenyl-1-butanamido]-1-methylimidazole-2-carboxamido}imidazole-2-carboxamide] | – | 50.2 | – | 81.6 | – | – | – | 46.2 | – | 47.9 | – | 78.5 | –
CN(C)CCNC(=O)c1nc(NC(=O)c2nc(NC(=O)c3nc(NC(=O)CCCc4ccc(N(CCCl)CCCl)cc4)cn3C)cn2C)cn1C [Compound 10, N-(N',N'-dimethylaminoethyl)-1-methyl-4-{1-methyl-4-[4-(4,4-bis(2-chloroethyl)aminophenyl-1-butanamido)-1-methylimidazole-2-carboxamido]imidazole-2-carboxamido}imidazole-2-carboxamide] | 100±5 | 5.76 | – | 11.4 | – | 42.2 | – | 5.27 | – | 67.5 | – | 10.7 | –

— patent US5273991A, “Imidazole-containing compositions and methods of use thereof analogs of distamycin” (Research Corporation Technologies, Inc., priority 1992, dated 1993)
